Patent publication US20200055839A1 (priority 2017, published 2020)

What follows are molecules tested on NL-RLuc virus (assay: Inhibition of HIV replication (NL-RLuc virus, luciferase readout in MT-2 cells)). Conditions: Human immunodeficiency virus 1, MT2, 120 h, MT-2 cells infected with NL-RLuc virus, 5 days of incubation, 10% FBS, at least 2 experiments.
Format: cell-based
Outline: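 MT-2 cells infected with NL4-3-derived virus carrying Renilla luciferase in place of part of nef, grown 5 days with serial compound dilutions in RPMI 1640/10% FBS. Virus growth read as luciferase expression. EC50 from median effect equation, at least 2 experiments.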

Q: With `CCOc1ccc(CCOc2ccc(-c3cnc(C)c([C@H](OC(C)(C)C)C(=O)O)c3N3CCC(C)(C)CC3)nc2)cc1` [Example 320, (2S)-2-(tert-butoxy)-2-[4′-(4,4-dimethylpiperidin-1-yl)-5-[2-(4-ethoxyphenyl)ethoxy]-6′-methyl-[2,3′-bipyridine]-5′-yl]acetic acid] as the molecule, how does the EC50 read?
A: Its EC50 is 2 nM.

Q: Which EC50 does the source give for `Cc1ncc(-c2cncc(CCC(C)C)c2)c(N2CCC(C)(C)CC2)c1[C@H](OC(C)(C)C)C(=O)O` [Example 419, (S)-2-(tert-Butoxy)-2-(4-(4,4-dimethylpiperidin-1-yl)-5′-isopentyl-6-methyl-[3, 3′-bipyridin]-5-yl)acetic acid] here?
A: The EC50 was 31 nM.

Q: `Cc1ncc(-c2cnc(OCCc3cccc(F)c3)c(F)c2)c(N2CCC(C)(C)CC2)c1[C@H](OC(C)(C)C)C(=O)O` [Example 119, (S)-2-(tert-Butoxy)-2-(4-(4,4-dimethylpiperidin-1-yl)-5′-fluoro-6′-(3-fluorophenethoxy)-6-methyl-[3, 3′-bipyridin]-5-yl)acetic acid] was tested. Which EC50 did it give?
A: The EC50 was 1 nM.

Q: Which EC50 does the source give for `Cc1ncc(-c2ccc(OCCc3ccc(F)cc3)cn2)c(N2CCC(C)(C)CC2)c1[C@H](OC(C)(C)C)C(=O)O` [Example 126, (2S)-2-(tert-Butoxy)-2-[4′-(4,4-dimethylpiperidin-1-yl)-5-[2-(4-fluorophenyl)ethoxy]-6′-methyl-[2, 3′-bipyridine]-5′-yl]acetic acid] here?
A: Its EC50 is 0.4 nM.

Q: With `Cc1nc(N)c(-c2cnc(OCCc3ccc(F)cc3)c(F)c2)c(N2CCC(C)(C)CC2)c1[C@H](OC(C)(C)C)C(=O)O` [Example 115, (S)-2-(2-Amino-4-(4,4-dimethylpiperidin-1-yl)-5′-fluoro-6′-(4-fluorophenethoxy)-6-methyl-[3, 3′-bipyridin]-5-yl)-2-(tert-butoxy)acetic acid] as the molecule, how does the EC50 read?
A: The EC50 was 1 nM.

Q: Which EC50 does the source give for `CCCCCCCOc1ccc(-c2cnc(C)c([C@H](OC(C)(C)C)C(=O)O)c2N2CCC(C)(C)CC2)nc1` [Example 326, (2S)-2-(tert-butoxy)-2-[4′-(4,4-dimethylpiperidin-1-yl)-5-(heptyloxy)-6′-methyl-[2,3′-bipyridine]-5′-yl]acetic acid] here?
A: Its EC50 is 3 nM.

Q: How did the EC50 turn out when `Cc1nc(CN2CCC3(CCC3)CC2)c(-c2ccccc2)c(N2CCC(C)(C)CC2)c1[C@H](OC(C)(C)C)C(=O)O` [Example 190, (2S)-2-[6-({7-Azaspiro[3.5]nonan-7-yl}methyl)-4-(4,4-dimethylpiperidin-1-yl)-2-methyl-5-phenylpyridin-3-yl]-2-(tert-butoxy)acetic acid] was run?
A: The EC50 was 3 nM.

Q: With `Cc1nc(C(=O)N2CCC(C)(C)CC2)c(-c2ccc(OCCc3ccc(F)cc3)cc2)c(N2CCC(C)(C)CC2)c1[C@H](OC(C)(C)C)C(=O)O` [Example 11, (S)-2-(tert-Butoxy)-2-(4-(4,4-dimethylpiperidin-1-yl)-6-(4,4-dimethylpiperidine-1-carbonyl)-5-(4-(4-fluorophenethoxy)phenyl)-2-methylpyridin-3-yl)acetic acid] as the molecule, how does the EC50 read?
A: The EC50 was 4 nM.

Q: Which EC50 does the source give for `Cc1nc(NCc2cccnc2)c(-c2ccc(OCCc3ccc(F)cc3)cc2)c(N2CCC(C)(C)CC2)c1[C@H](OC(C)(C)C)C(=O)O` [Example 92, (S)-2-(tert-Butoxy)-2-(4-(4,4-dimethylpiperidin-1-yl)-5-(4-(4-fluorophenethoxy)phenyl)-2-methyl-6-((pyridin-3-ylmethyl)amino)pyridin-3-yl)acetic acid] here?
A: Its EC50 is 4 nM.

Q: `Cc1ncc(-c2cnc(OCCc3cccc(F)c3)c(Cl)c2)c(N2CCC(C)(C)CC2)c1[C@H](OC(C)(C)C)C(=O)O` [Example 251, (S)-2-(tert-Butoxy)-2-(5′-chloro-4-(4,4-dimethylpiperidin-1-yl)-6′-(3-fluorophenethoxy)-6-methyl-[3, 3′-bipyridin]-5-yl)acetic acid] was tested. Which EC50 did it give?
A: Its EC50 is 2 nM.

Q: `CCCCCCOc1ccc(-c2cnc(C)c([C@H](OC(C)(C)C)C(=O)O)c2N2CCC(C)(C)CC2)nc1` [Example 334, (2S)-2-(tert-butoxy)-2-[4′-(4,4-dimethylpiperidin-1-yl)-5-(hexyloxy)-6′-methyl-[2,3′-bipyridine]-5′-yl]acetic acid] was tested. Which EC50 did it give?
A: The EC50 was 4 nM.

Q: How did the EC50 turn out when `COc1ccc(-c2cnc(C)c([C@H](OC(C)(C)C)C(=O)O)c2N2CCC(C)(C)CC2)nc1` [Example 229, (S)-2-(tert-Butoxy)-2-(4′-(4,4-dimethylpiperidin-1-yl)-5-methoxy-6′-methyl-[2, 3′-bipyridin]-5′-yl)acetic acid] was run?
A: Its EC50 is 13 nM.

Q: `CCc1ncc(-c2ccc(OCCc3ccc(F)cc3)cn2)c(N2CCC(C)(C)CC2)c1[C@H](OC(C)(C)C)C(=O)O` [Example 270] was tested. Which EC50 did it give?
A: The EC50 was 0.6 nM.

Q: Which EC50 does the source give for `Cc1ncc(-c2ccc(OC(C)C)c(F)c2F)c(N2CCC(C)(C)CC2)c1[C@H](OC(C)(C)C)C(=O)O` [Example 169, (2S)-2-(tert-Butoxy)-2-{5-[2,3-difluoro-4-(propan-2-yloxy)phenyl]-4-(4,4-dimethylpiperidin-1-yl)-2-methylpyridin-3-yl}acetic acid] here?
A: The EC50 was 7 nM.

Q: With `Cc1nc(N)c(-c2cc(F)c(F)c(F)c2)c(N2CCC(C)(C)CC2)c1[C@H](OC(C)(C)C)C(=O)O` [Example 58, (S)-2-(6-Amino-4-(4,4-dimethylpiperidin-1-yl)-2-methyl-5-(3,4,5-trifluorophenyl)pyridin-3-yl)-2-(tert-butoxy)acetic acid] as the molecule, how does the EC50 read?
A: Its EC50 is 18 nM.

Q: `Cc1ncc(-c2ccc(O[C@@H](C)C(C)C)cc2)c(N2CCC(C)(C)CC2)c1[C@H](OC(C)(C)C)C(=O)O` [Example 363, (2S)-2-(tert-butoxy)-2-[4-(4,4-dimethylpiperidin-1-yl)-2-methyl-5-(4-{[(2S)-3-methylbutan-2-yl]oxy}phenyl)pyridin-3-yl]acetic acid] was tested. Which EC50 did it give?
A: Its EC50 is 13 nM.

Q: `Cc1nc(N)c(-c2cnc(OCCc3ccccc3F)c(F)c2)c(N2CCC(C)(C)CC2)c1[C@H](OC(C)(C)C)C(=O)O` [Example 117, (S)-2-(2-Amino-4-(4,4-dimethylpiperidin-1-yl)-5′-fluoro-6′-(2-fluorophenethoxy)-6-methyl-[3, 3′-bipyridin]-5-yl)-2-(tert-butoxy)acetic acid] was tested. Which EC50 did it give?
A: Its EC50 is 1 nM.

Q: For `COc1c(Cl)cccc1-c1cnc(C)c([C@H](OC(C)(C)C)C(=O)O)c1N1CCC(C)(C)CC1` [Example 152, (2S)-2-(tert-Butoxy)-2-[5-(3-chloro-2-methoxyphenyl)-4-(4,4-dimethylpiperidin-1-yl)-2-methylpyridin-3-yl]acetic acid], which EC50 is on record?
A: The EC50 was 60 nM.

Q: How did the EC50 turn out when `Cc1ncc(-c2cccc(F)c2)c(N2CCC(C)(C)CC2)c1[C@H](OC(C)(C)C)C(=O)O` [Example 133, (2S)-2-(tert-Butoxy)-2-[4-(4,4-dimethylpiperidin-1-yl)-5-(3-fluorophenyl)-2-methylpyridin-3-yl]acetic acid] was run?
A: Its EC50 is 4 nM.

Q: For `Cc1nc(-c2ccn(C)c2)c(-c2ccc(OCCc3ccc(F)cc3)cc2)c(N2CCC(C)(C)CC2)c1[C@H](OC(C)(C)C)C(=O)O` [Example 48, (S)-2-(tert-Butoxy)-2-(4-(4,4-dimethylpiperidin-1-yl)-5-(4-(4-fluorophenethoxy)phenyl)-2-methyl-6-(1-methyl-1H-pyrrol-3-yl)pyridin-3-yl)acetic acid], which EC50 is on record?
A: Its EC50 is 3 nM.

Q: With `Cc1ncc(-c2cnc(O[C@@H](C)C(C)C)c(F)c2)c(N2CCC(C)(C)CC2)c1[C@H](OC(C)(C)C)C(=O)O` [Example 370, (2S)-2-(tert-butoxy)-2-[4-(4,4-dimethylpiperidin-1-yl)-5′-fluoro-6-methyl-6′-{[(2S)-3-methylbutan-2-yl]oxy}-[3,3′-bipyridine]-5-yl]acetic acid] as the molecule, how does the EC50 read?
A: Its EC50 is 1 nM.
